Data published in PMC2185538, “Purification of the full-length Xenopus interphotoreceptor retinoid binding protein and growth of diffraction-quality crystals” (Molecular Vision, 2007).

Target: T1, Xenopus interphotoreceptor retinoid-binding protein (xIRBP) (Xenopus laevis, UniProt Q7SZI7)
T1 construct: gene rbp3; recombinant full-length four-module xIRBP (1197 amino acids; 131 kDa), free of its thioredoxin fusion partner; vector-derived N-terminal G-L-G-D-P
Experiment: fluorescence titration: retinol fluorescence enhancement (also tryptophan quenching, Kd […], and energy transfer, Kd […])

T1 sequence (Q7SZI7 23-1219): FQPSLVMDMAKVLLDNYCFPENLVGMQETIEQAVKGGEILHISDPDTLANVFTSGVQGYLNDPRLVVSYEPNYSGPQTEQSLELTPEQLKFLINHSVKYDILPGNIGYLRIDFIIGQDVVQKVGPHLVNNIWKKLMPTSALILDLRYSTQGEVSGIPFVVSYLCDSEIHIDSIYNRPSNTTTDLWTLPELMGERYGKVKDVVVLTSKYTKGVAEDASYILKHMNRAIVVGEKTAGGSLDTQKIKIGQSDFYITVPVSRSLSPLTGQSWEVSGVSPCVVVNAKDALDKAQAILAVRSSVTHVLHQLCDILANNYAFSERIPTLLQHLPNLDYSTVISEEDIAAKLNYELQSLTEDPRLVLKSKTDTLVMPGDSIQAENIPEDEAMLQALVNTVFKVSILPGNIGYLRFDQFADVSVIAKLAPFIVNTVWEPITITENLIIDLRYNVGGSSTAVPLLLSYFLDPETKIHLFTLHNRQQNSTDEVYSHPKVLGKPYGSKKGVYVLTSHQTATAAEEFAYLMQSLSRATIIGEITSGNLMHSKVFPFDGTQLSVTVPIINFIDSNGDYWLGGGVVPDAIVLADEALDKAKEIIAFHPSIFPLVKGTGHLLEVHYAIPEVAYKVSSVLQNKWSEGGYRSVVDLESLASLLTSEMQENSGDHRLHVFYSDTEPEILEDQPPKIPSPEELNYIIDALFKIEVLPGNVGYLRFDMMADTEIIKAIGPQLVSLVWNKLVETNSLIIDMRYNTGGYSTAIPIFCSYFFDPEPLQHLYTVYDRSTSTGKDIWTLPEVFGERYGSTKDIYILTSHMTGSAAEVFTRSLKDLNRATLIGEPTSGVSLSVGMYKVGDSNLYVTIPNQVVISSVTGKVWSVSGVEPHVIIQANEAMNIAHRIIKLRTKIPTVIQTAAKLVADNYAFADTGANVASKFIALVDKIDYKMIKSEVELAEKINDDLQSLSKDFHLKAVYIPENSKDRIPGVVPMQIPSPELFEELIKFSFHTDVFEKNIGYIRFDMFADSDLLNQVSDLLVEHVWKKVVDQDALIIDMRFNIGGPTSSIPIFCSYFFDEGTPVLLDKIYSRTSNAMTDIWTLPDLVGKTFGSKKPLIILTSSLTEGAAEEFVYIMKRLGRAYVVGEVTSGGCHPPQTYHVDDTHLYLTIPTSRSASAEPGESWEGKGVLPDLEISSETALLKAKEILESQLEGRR

Molecule `CC1=C(/C=C/C(C)=C/C=C/C(C)=C/CO)C(C)(C)CCC1` [all-trans retinol] has a Kd of 150 ± 30 nM.
